Results on 77 sequences are retold here after the supplement of paper PMC11208160.
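Also: IS621 recombinase and bridge RNA in Escherichia coli cells.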

A short description of this series: recombinant barcode read abundance after kanamycin selection (control-corrected) (log10(CPM+1)); higher = more efficient recombination; sequences stand for … in AGTGCAGAGAAAATCGGCCAGTTTTCTCTGCCTGCAGTCCGCATGCCGT…AGATTTATGCAGCGGACTGCCTTTCTCCCAAAGTGATAAACCGGACAGTATCATGGACCGGTTTTCCCGGTAATCCGTATTTGCAAGGTTGGTTTCACT; site = the 11-nt target. In a few lines: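 Recombination efficiency was calculated from barcode counts at recombinant junctions, normalized to counts per million, averaged and corrected by the control. Each value is given as log10(CPM+1). The constructs were Gibson-cloned oligos (promoter, target, barcode, J23119-driven first 104 bridge RNA bases) in a vector with the remaining 73 bp and a T7-inducible recombinase, co-electroporated into E. coli with a donor plasmid and plated in duplicate on chloramphenicol/ampicillin LB agar (control) or chloramphenicol/ampicillin/kanamycin with 0.1 mM IPTG.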
With “GGACCTACTTGGGTTCTAACCTGTTGCCA (site GAACCTACTTG)”, the “recombinant barcode read abundance (log10)” value is 0.0276.
With “GGACCTACTTGGGTTCTAACCTGTTGCCA (site GGACCTACTTG)”, the “recombinant barcode read abundance (log10)” value was found to be 0.483.
As to “GGACGCTCTTGGGTTCTAACCTGTTGCCT (site GGACGCTCTAG)”, the “recombinant barcode read abundance (log10)” value came out at 1.83.
The same measure for “GGACGCTCTTGGGTTCTAACCTGTTGCCT (site GGTCGCTCTAG)”: 0.113.
With “GGACGGCCTTGGGTTCTAACCTGTTGCGT (site CTACGGCCTAC)”, the “recombinant barcode read abundance (log10)” value stood at 0.152.
With “GGACGGCCTTGGGTTCTAACCTGTTGCGT (site GGACGGCCTAC)”, the “recombinant barcode read abundance (log10)” value was 2.53.
The same measure for “GGACGGGCTTGGGTTCTAACCTGTTGCAG (site GAACGGGCTCC)”: 0.0984; for “GGACGGGCTTGGGTTCTAACCTGTTGCAG (site GGACGGGCTCT)”: 2.48; for “GGAGACGCTTGGGTTCTAACCTGTTGCCT (site GGAGAAGCTAG)”: 0.344.
With “GGAGACGCTTGGGTTCTAACCTGTTGCCT (site GGAGACGCTAG)” the figure was 1.32; with “GGAGACGCTTGGGTTCTAACCTGTTGCCT (site GGAGAGGCTAG)”, 0.676; with “GGAGACGCTTGGGTTCTAACCTGTTGCCT (site GGAGATGCTAG)”, 0.235.
With “GGAGCACCTTGGGTTCTAACCTGTTGCCT (site GGAGCACCTAG)” the figure was 2.38; with “GGAGCACCTTGGGTTCTAACCTGTTGCCT (site GGAGCAGCTAG)”, 0.0718.
In the case of “GGAGCGTCTTGGGTTCTAACCTGTTGCGT (site GGAGCGTCTAC)”, the “recombinant barcode read abundance (log10)” value turned out to be 1.61.
As for “GGAGCGTCTTGGGTTCTAACCTGTTGCGT (site GGCGCGTCTAT)”, the “recombinant barcode read abundance (log10)” value stood at 0.299.
Regarding “GGAGGGGCTTGGGTTCTAACCTGTTGCCT (site GGAGGGGCTAG)”, the “recombinant barcode read abundance (log10)” value is 1.75.
With “GGAGGGGCTTGGGTTCTAACCTGTTGCCT (site TGAGGTGCTAG)” the figure was 0.0107; with “GGAGTGACTTGGGTTCTAACCTGTTGCTT (site GGAGTGACTAA)”, 0.979; with “GGAGTGACTTGGGTTCTAACCTGTTGCTT (site GGAGTGACTTA)”, 0.176.
Turning to “GGATAGACTTGGGTTCTAACCTGTTGCGT (site GGATACACTAC)”, the “recombinant barcode read abundance (log10)” value was 0.107.
As to “GGATAGACTTGGGTTCTAACCTGTTGCGT (site GGATAGACTAC)”, the “recombinant barcode read abundance (log10)” value is 1.95.
Turning to “GGATAGCCTTGGGTTCTAACCTGTTGCCT (site AGATAGCCTAG)”, the “recombinant barcode read abundance (log10)” value was 0.902.
Consider “GGATAGCCTTGGGTTCTAACCTGTTGCCT (site CGATAGCCTAG)”, for which the “recombinant barcode read abundance (log10)” value was found to be 0.0205.
As to “GGATAGCCTTGGGTTCTAACCTGTTGCCT (site GGATAGCCTAG)”, the “recombinant barcode read abundance (log10)” value was 1.71.
With “GGATAGCCTTGGGTTCTAACCTGTTGCCT (site TGATAGCCTAG)” the figure was 0.239; with “GGATATCCTTGGGTTCTAACCTGTTGCCT (site GGATATCCTAG)”, 0.645.
For the sequence “GGATATCCTTGGGTTCTAACCTGTTGCCT (site TGAAATCCTAG)”, the “recombinant barcode read abundance (log10)” value is 0.114.
Turning to “GGATCGTCTTGGGTTCTAACCTGTTGCCT (site GGATCGTCTAG)”, the “recombinant barcode read abundance (log10)” value was found to be 1.44.
In the case of “GGATCGTCTTGGGTTCTAACCTGTTGCCT (site GGTTCCTCTAG)”, the “recombinant barcode read abundance (log10)” value is 0.0567.
For “GGATTCTCTTGGGTTCTAACCTGTTGCCT (site GGACTCACTAG)”, the “recombinant barcode read abundance (log10)” value came to 0.0575.
The same measure for “GGATTCTCTTGGGTTCTAACCTGTTGCCT (site GGATTCTCTAG)”: 1.83; for “GGCAAGGCTTGGGTTCTAACCTGTTGCCT (site ACGGGTCCTCT)”: 0.417.
The same measure for “GGCAAGGCTTGGGTTCTAACCTGTTGCCT (site GGCAAGGCTAG)”: 0.0617; for “GGCACCACTTGGGTTCTAACCTGTTGCGT (site GGCACCACTAC)”: 1.58.
As for “GGCACCACTTGGGTTCTAACCTGTTGCGT (site GGCACTACTAC)”, the “recombinant barcode read abundance (log10)” value was found to be 0.108.
With “GGCACTACTTGGGTTCTAACCTGTTGCGT (site GGCACCACTAC)”, the “recombinant barcode read abundance (log10)” value was 0.661.
With “GGCACTACTTGGGTTCTAACCTGTTGCGT (site GGCACTACTAC)”, the “recombinant barcode read abundance (log10)” value amounted to 0.28.
With “GGCACTTCTTGGGTTCTAACCTGTTGCCT (site GGCACTTCTAG)” the figure was 0.188; with “GGCACTTCTTGGGTTCTAACCTGTTGCCT (site GGCTCTTCTAG)”, 0.136.
As for “GGCATGTCTTGGGTTCTAACCTGTTGCCT (site GGCATGTCTAG)”, the “recombinant barcode read abundance (log10)” value worked out at 1.15.
With “GGCATGTCTTGGGTTCTAACCTGTTGCCT (site GGCTTGTCTAG)” the figure was 0.0534; with “GGCCCGCCTTGGGTTCTAACCTGTTGCCT (site AGCCCGCCTAG)”, 0.0411.
For the sequence “GGCCCGCCTTGGGTTCTAACCTGTTGCCT (site CGCCCGCCTAG)”, the “recombinant barcode read abundance (log10)” value turned out to be 0.00686.
For the sequence “GGCCCGCCTTGGGTTCTAACCTGTTGCCT (site GGCCCGCCTAG)”, the “recombinant barcode read abundance (log10)” value worked out at 0.734.
With “GGCCCGCCTTGGGTTCTAACCTGTTGCCT (site TGCCCGCCTAG)” the figure was 0.0746; with “GGCGATCCTTGGGTTCTAACCTGTTGCCT (site GACGATCCTAG)”, 0.151.
The same measure for “GGCGATCCTTGGGTTCTAACCTGTTGCCT (site GCCGATCCTAG)”: 0.213; for “GGCGATCCTTGGGTTCTAACCTGTTGCCT (site GGCGATCCTAG)”: 1.15; for “GGCGATCCTTGGGTTCTAACCTGTTGCCT (site GTCGATCCTAG)”: 0.059.
With “GGCGCGTCTTGGGTTCTAACCTGTTGCAT (site GGAGCGTCTAC)” the figure was 0.0291; with “GGCGCGTCTTGGGTTCTAACCTGTTGCAT (site GGCGCGTCTAT)”, 0.589; with “GGCGGCCCTTGGGTTCTAACCTGTTGCGG (site GACTGCCCTCC)”, 0.103.
For the sequence “GGCGGCCCTTGGGTTCTAACCTGTTGCGG (site GGCGGCCCTCC)”, the “recombinant barcode read abundance (log10)” value amounted to 2.31.
For the sequence “GGCGTGCCTTGGGTTCTAACCTGTTGCGT (site AAGAACTCTTG)”, the “recombinant barcode read abundance (log10)” value came out at 0.0755.
The same measure for “GGCGTGCCTTGGGTTCTAACCTGTTGCGT (site GGCGTGCCTAC)”: 2.95.
With “GGCGTGTCTTGGGTTCTAACCTGTTGCGG (site GACGTGTCTCG)” the figure was 0.125; with “GGCGTGTCTTGGGTTCTAACCTGTTGCGG (site GGCGTGTCTCC)”, 2.07.
The same measure for “GGCTAGTCTTGGGTTCTAACCTGTTGCTT (site GGATTGTCTAA)”: 0.109; for “GGCTAGTCTTGGGTTCTAACCTGTTGCTT (site GGCTAGTCTAA)”: 0.561.
As to “GGCTCTACTTGGGTTCTAACCTGTTGCGG (site GGCTAGACTCC)”, the “recombinant barcode read abundance (log10)” value was 0.0656.
As to “GGCTCTACTTGGGTTCTAACCTGTTGCGG (site GGCTCTACTCC)”, the “recombinant barcode read abundance (log10)” value is 0.326.
With “GGCTCTTCTTGGGTTCTAACCTGTTGCCT (site GGCACTTCTAG)” the figure was 0.221.
With “GGCTCTTCTTGGGTTCTAACCTGTTGCCT (site GGCTCTTCTAG)” the figure was 0.332.
Turning to “GGCTGTCCTTGGGTTCTAACCTGTTGCGT (site CTAAAAGCTTT)”, the “recombinant barcode read abundance (log10)” value is 0.0937.
The same measure for “GGCTGTCCTTGGGTTCTAACCTGTTGCGT (site GGCTGTCCTAC)”: 0.751; for “GGGAACCCTTGGGTTCTAACCTGTTGCTG (site GGGAACCCTAA)”: 0.0418; for “GGGAACCCTTGGGTTCTAACCTGTTGCTG (site GGGAACCCTCA)”: 1.5.
With “GGGAACCCTTGGGTTCTAACCTGTTGCTG (site GGGAACCCTGA)” the figure was 0.0561; with “GGGAACCCTTGGGTTCTAACCTGTTGCTG (site GGGAACCCTTA)”, 0.867.
Regarding “GGGACAACTTGGGTTCTAACCTGTTGCCT (site GGGACAACTAG)”, the “recombinant barcode read abundance (log10)” value was 0.0953.
The same measure for “GGGACAACTTGGGTTCTAACCTGTTGCCT (site GGGGTAACTAG)”: 0.0828.
Turning to “GGGACTACTTGGGTTCTAACCTGTTGCGG (site CGGGCTACTCC)”, the “recombinant barcode read abundance (log10)” value was found to be 0.0949.
On to “GGGACTACTTGGGTTCTAACCTGTTGCGG (site GGGACTACTCC)”, for which the “recombinant barcode read abundance (log10)” value worked out at 1.86.
With “GGGACTTCTTGGGTTCTAACCTGTTGCAT (site GGGACTTCTAT)” the figure was 0.937; with “GGGACTTCTTGGGTTCTAACCTGTTGCAT (site GGGCCTTCTAT)”, 0.0615; with “GGGACTTCTTGGGTTCTAACCTGTTGCAT (site GGGGCTTCTAT)”, 0.273.
